According to ChEMBL document CHEMBL5370619, “Targeting the Tyrosine Kinase 2 (TYK2) Pseudokinase Domain: Discovery of the Selective TYK2 Inhibitor ABBV-712” (J Med Chem, 2023):
Converted amounts (≈) assume the structure as drawn.

What was measured:
[1] = biological target: T1, Non-receptor tyrosine-protein kinase TYK2 (Homo sapiens, UniProt P29597); assay: Inhibition of recombinant human N-terminal His-tagged TYK2 JH2 domain (577 to 870 residues) expressed in Sf9 cells using N-(2-(2-(2-((3-(5-acetamido-3-(3-(N,N-dimethylsulfamoyl)phenyl)-1H-pyrrolo[2,3-c]pyridin-1-yl)propyl)amino)-2-oxoethoxy)ethoxy)ethyl)-2',7'-difluoro-3',6'-dihydroxy-3-oxo-3H-spiro[isobenzofuran-1,9'-xanthene]-5-carboxamide trifluoroacetate as substrate incubated for 60 mins by TR-FRET assay
T1 sequence (P29597 whole entry, the tested form may be a part): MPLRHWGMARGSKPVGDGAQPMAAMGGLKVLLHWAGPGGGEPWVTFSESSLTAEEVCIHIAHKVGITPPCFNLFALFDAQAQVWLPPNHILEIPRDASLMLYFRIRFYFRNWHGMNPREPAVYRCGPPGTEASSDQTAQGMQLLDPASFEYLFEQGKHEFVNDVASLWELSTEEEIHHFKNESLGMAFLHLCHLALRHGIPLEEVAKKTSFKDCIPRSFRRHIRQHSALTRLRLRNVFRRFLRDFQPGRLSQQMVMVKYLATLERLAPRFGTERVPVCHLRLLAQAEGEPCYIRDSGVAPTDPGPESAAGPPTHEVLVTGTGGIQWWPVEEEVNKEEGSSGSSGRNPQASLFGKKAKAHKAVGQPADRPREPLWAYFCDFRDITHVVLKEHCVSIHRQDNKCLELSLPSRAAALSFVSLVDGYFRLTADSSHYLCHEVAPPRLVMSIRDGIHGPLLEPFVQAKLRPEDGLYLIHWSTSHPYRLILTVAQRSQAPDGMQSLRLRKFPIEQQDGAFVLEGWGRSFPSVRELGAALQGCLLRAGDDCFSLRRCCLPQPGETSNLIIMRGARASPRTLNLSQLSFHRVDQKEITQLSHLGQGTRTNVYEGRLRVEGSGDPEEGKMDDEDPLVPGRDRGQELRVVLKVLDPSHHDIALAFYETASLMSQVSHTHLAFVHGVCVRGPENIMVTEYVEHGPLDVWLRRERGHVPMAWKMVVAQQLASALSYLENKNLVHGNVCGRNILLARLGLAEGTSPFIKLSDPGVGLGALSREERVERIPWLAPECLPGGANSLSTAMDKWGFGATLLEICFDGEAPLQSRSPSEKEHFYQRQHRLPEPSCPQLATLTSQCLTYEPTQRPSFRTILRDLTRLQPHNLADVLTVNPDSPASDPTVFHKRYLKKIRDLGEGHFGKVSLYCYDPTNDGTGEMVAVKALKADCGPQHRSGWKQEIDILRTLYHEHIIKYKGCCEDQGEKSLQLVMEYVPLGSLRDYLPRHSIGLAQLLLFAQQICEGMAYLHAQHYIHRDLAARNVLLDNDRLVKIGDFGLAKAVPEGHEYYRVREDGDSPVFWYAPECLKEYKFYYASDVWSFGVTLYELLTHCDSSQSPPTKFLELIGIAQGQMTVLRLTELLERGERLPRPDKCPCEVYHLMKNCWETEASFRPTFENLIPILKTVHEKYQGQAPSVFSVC

[2] = biological target: T1, Non-receptor tyrosine-protein kinase TYK2; assay: Inhibition of TYK2 in human T-blast cells assessed as IL-12 induced STAT4 phosphorylation at Tyr694 residue preincubated for 30 mins followed by IL-12 stimulation and measured after 20 mins by AlphaScreen assay; assay type: cell-based, T-blast cell
[3] = biological target: T2, Tyrosine-protein kinase JAK1 (Homo sapiens, UniProt P23458); assay: Inhibition of JAK1 in human TF-1 cells assessed as reduction in IL-6 induced STAT3 phosphorylation at Tyr705 residue preincubated for 30 mins followed by IL-6 stimulation and measured after 30 mins by AlphaScreen assay; assay type: cell-based
T2 sequence (P23458 whole entry): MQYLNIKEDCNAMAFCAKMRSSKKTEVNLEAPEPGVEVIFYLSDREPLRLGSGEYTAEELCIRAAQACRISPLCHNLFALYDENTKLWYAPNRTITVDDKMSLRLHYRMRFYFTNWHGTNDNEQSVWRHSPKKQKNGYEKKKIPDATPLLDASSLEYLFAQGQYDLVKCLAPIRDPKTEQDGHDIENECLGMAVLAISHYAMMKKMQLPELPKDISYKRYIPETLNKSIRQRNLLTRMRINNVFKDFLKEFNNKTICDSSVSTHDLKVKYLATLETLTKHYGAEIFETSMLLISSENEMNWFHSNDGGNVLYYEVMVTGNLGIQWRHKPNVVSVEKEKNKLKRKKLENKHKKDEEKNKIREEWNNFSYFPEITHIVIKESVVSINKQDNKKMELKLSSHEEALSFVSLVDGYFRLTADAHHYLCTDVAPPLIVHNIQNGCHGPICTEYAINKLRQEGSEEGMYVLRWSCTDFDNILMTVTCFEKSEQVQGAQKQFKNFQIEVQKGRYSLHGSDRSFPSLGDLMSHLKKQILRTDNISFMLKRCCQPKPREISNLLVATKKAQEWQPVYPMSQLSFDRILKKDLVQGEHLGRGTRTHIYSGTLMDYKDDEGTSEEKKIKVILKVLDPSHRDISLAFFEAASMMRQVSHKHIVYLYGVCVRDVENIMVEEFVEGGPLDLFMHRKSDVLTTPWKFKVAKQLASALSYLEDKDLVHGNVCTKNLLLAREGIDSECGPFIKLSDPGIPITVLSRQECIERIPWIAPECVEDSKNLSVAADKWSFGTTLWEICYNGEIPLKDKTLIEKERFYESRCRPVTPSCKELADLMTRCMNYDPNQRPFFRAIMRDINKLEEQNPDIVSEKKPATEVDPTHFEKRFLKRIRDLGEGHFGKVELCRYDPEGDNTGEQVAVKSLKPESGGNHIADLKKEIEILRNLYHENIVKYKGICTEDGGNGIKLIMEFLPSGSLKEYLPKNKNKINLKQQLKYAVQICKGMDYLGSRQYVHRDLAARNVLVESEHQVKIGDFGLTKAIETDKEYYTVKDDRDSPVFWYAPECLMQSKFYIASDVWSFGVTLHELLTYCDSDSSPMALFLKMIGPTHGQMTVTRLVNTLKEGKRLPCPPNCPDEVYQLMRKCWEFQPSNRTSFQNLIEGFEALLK

[4] = Metabolic stability in human hepatocytes assessed as intrinsic clearance for unbound fraction of drug; assay type: ADME, cell-based, Hepatocyte
[5] = Thermodynamic solubility in PBS at pH 7.4; assay type: physicochemical; details: read-out: Therm_solubility
[6] = biological target: Tyrosine-protein kinase JAK2 (Homo sapiens, UniProt O60674); assay: Inhibition of JAK2 in human UT7 cells assessed as reduction in erythropoietin induced STAT5 phosphorylation preincubated for 30 mins followed by erythropoietin stimulation and measured after 20 mins by AlphaScreen assay; assay type: cell-based
Sequence of Tyrosine-protein kinase JAK2 (O60674 whole entry): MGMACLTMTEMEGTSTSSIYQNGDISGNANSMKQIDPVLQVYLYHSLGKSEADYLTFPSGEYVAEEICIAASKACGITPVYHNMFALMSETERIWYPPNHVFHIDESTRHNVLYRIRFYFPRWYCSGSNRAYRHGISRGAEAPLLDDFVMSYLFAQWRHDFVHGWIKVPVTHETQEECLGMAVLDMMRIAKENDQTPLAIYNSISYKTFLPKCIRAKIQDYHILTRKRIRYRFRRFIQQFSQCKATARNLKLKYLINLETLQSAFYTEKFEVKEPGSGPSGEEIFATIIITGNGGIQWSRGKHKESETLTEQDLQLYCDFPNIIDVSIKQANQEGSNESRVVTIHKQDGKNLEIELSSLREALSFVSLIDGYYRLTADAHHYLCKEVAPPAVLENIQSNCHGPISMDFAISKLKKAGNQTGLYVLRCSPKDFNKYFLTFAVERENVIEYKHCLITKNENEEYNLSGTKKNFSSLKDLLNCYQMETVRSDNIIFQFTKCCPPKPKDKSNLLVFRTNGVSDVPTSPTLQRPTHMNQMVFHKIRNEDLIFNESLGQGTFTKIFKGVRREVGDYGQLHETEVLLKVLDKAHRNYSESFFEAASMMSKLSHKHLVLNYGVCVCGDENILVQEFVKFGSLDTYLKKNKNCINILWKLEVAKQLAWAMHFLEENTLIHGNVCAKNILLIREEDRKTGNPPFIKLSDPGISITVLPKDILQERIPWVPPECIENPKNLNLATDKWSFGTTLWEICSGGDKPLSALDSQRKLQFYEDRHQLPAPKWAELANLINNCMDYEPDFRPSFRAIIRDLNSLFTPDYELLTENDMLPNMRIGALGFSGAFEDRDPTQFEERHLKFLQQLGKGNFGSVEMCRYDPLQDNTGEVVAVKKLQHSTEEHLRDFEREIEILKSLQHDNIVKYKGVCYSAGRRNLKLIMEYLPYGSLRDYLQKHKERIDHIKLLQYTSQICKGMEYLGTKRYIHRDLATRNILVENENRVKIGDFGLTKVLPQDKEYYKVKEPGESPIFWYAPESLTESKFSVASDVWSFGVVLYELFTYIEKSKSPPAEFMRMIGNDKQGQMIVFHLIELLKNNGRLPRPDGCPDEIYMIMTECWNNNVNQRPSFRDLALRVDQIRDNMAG

[7] = biological target: T3, Tyrosine-protein kinase JAK3 (Homo sapiens, UniProt P52333); assay: Inhibition of JAK3 in human T-blast cells assessed as reduction in IL-2 induced STAT5 phosphorylation preincubated for 30 mins followed by IL-2 stimulation and measured after 20 mins by AlphaScreen assay; assay type: cell-based, T-blast cell
T3 sequence (P52333 whole entry): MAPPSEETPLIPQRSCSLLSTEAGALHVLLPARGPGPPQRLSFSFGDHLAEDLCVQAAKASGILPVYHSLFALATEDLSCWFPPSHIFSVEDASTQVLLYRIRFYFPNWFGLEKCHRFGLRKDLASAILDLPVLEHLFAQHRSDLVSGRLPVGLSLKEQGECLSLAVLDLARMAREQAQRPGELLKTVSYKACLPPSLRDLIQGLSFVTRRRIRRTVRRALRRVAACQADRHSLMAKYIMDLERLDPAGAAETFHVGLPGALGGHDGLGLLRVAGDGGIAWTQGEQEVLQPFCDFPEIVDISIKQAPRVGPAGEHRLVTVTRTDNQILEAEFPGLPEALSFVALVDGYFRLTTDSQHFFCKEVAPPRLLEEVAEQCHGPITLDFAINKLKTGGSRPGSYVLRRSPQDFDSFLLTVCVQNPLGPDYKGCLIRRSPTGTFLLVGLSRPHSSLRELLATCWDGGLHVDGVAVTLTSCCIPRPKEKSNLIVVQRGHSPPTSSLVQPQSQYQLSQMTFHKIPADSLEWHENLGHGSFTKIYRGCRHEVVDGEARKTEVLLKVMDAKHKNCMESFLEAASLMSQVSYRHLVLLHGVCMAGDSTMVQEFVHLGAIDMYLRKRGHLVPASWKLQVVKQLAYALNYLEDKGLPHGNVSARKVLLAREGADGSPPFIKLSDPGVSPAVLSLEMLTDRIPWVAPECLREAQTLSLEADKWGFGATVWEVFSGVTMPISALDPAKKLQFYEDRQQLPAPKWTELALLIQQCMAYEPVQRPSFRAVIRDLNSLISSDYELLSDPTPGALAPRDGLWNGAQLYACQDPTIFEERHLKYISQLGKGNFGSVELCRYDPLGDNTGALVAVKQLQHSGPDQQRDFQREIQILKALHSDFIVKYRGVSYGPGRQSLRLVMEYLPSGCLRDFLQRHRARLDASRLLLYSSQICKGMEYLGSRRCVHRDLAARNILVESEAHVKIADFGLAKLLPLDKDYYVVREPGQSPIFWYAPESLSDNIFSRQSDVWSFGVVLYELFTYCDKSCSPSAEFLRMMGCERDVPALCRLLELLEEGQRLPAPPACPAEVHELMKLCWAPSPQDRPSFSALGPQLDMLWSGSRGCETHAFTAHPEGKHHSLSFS

CYP3A4 [8] = biological target: T4, CYP3A4 (Homo sapiens, UniProt P08684); assay: Time dependent inhibition of CYP3A4 in human liver microsomes using midazolam as substrate assessed as 1'-OH midazolam metabolite formation at 50 uM preincubated for 30 mins in presence of NADPH followed by substrate addition and measured after 15 mins by HPLC-MS/MS analysis relative to control; assay type: ADME, Microsome; details: probe midazolam, time 45 min, read-out: TDI
T4 sequence (P08684 whole entry): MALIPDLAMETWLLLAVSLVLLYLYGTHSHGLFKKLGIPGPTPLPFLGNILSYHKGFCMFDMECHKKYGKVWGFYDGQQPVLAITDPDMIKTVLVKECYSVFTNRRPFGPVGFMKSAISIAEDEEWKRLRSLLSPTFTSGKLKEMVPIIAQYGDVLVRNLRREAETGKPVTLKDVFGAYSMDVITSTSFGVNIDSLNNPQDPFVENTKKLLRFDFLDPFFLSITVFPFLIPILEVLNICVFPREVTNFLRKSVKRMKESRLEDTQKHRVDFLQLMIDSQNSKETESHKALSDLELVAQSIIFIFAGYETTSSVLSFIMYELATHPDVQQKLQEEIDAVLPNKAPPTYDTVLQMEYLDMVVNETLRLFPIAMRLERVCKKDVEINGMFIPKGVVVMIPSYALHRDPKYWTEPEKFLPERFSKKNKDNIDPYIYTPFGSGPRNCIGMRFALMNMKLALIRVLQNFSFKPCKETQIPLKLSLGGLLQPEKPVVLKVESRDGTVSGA

CYP3A4 [9] = biological target: T4, CYP3A4; assay: Induction of CYP3A4 in human hepatocytes assessed as fold increase in mRNA level at 10 uM incubated for 24 hrs by RT-qPCR analysis relative to control; assay type: ADME, cell-based, Hepatocyte; details: read-out: FC
CYP3A4 [10] = biological target: T4, CYP3A4; assay: Induction of CYP3A4 in human hepatocytes assessed as maximum activation in mRNA level at 10 uM incubated for 24 hrs by RT-qPCR analysis relative to control; assay type: ADME, cell-based, Hepatocyte; details: read-out: max activation
[11] = Unbound clearance in rat blood at 1 mg/kg, iv or 1 mg/kg,po; assay type: ADME, organism-based; details: in vivo
[12] = Half life in rat at 1 mg/kg, iv or 1 mg/kg,po; assay type: ADME, organism-based; details: in vivo
[13] = Volume of distribution at steady state in rat at 1 mg/kg, iv or 1 mg/kg,po; assay type: ADME, organism-based; details: in vivo, read-out: Vdss
[14] = Oral bioavailability in rat at 1 mg/kg; assay type: ADME, organism-based; details: in vivo
[15] = Metabolic stability in dog hepatocytes assessed as intrinsic clearance for unbound fraction of drug; assay type: ADME, cell-based, Canis lupus familiaris, Hepatocyte
[16] = Metabolic stability in monkey hepatocytes assessed as intrinsic clearance for unbound fraction of drug; assay type: ADME, cell-based, Macaca mulatta, Hepatocyte; details: rhesus monkey
[17] = Unbound clearance in dog blood at 0.5 mg/kg, iv; assay type: ADME, organism-based, Canis lupus familiaris; details: in vivo
[18] = Half life in dog at 0.5 mg/kg, iv; assay type: ADME, organism-based, Canis lupus familiaris; details: in vivo
[19] = AUC (0 to infinity) in dog at 0.5 mg/kg,po; assay type: ADME, organism-based, Canis lupus familiaris; design: dose 0.5 mg/kg, route po; details: in vivo
[20] = Oral bioavailability in dog at 0.5 mg/kg; assay type: ADME, organism-based, Canis lupus familiaris; details: in vivo
[21] = Unbound clearance in cynomolgus monkey blood at 0.5 mg/kg, iv; assay type: ADME, organism-based, Macaca fascicularis; details: in vivo
[22] = Half life in cynomolgus monkey at 0.5 mg/kg, iv; assay type: ADME, organism-based, Macaca fascicularis; details: in vivo
[23] = biological target: T1, Non-receptor tyrosine-protein kinase TYK2; assay: Inhibition of TYK2 JH1 domain (unknown origin) by TR-FRET assay
[24] = biological target: T2, Tyrosine-protein kinase JAK1; assay: Inhibition of JAK1 JH1 domain (unknown origin) by TR-FRET assay
[25] = Selectivity ratio of IC50 for inhibition of TYK2 JH1 domain (unknown origin) to IC50 for inhibition of recombinant human N-terminal His-tagged TYK2 JH2 domain (577 to 870 residues) expressed in Sf9 cells
[26] = Selectivity ratio of IC50 for inhibition of JAK1 JH1 domain (unknown origin) to IC50 for inhibition of recombinant human N-terminal His-tagged TYK2 JH2 domain (577 to 870 residues) expressed in Sf9 cells

Row | SMILES | IC50 [1] [nM] | EC50 [2] [nM] | EC50 [3] [µM] | CL free [4] [L/h/kg] | solubility thermodynamic [5] [µM] | inhibition at 0.25 h, 50 µM (CYP3A4 [8]) [%] | fold induction at 24 h, 10 µM (CYP3A4 [9]) | Emax at 24 h, 10 µM (CYP3A4 [10]) [%] | other results
1 | CCS(=O)(=O)c1cccc(-c2cn(C)c3cnc(NC(C)=O)cc23)n1 | 9 | 93 | 17.7 | 5.1 |  |  |  |  | 
2 | CC(=O)Nc1cc2c(-c3cccc(S(=O)(=O)N(C)C)n3)cn(C)c2cn1 | 4 | 24 | 3.4 | 7.9 | 2.4 (≈ 0.896 µg/mL) |  |  |  | 
3 | CN(C)S(=O)(=O)c1cccc(-c2c[nH]c3cnc(NC(=O)C4CC4)cc23)c1 | 480 | 540 | 36.3 | 45.9 | < 0.8 |  |  |  | 
4 | CO[C@@]1(c2cc(OCC[C@@H](C)O)cc(-c3cn(C)c4cnc(NC(C)=O)cc34)n2)CCOC1 |  | 77 | > 20 |  | 105 (≈ 47.7 µg/mL) | 8 | 2.6 | 6 | EC50 [6]: > 20 µM; EC50 [7]: > 20 µM; CL free [11]: 34 L/h/kg; half-life [12]: 66 min; Vd [13]: 19 L/kg; bioavailability [14]: 26%
5 | CO[C@@]1(c2cc(O[C@@H](C)CCO)cc(-c3cn(C)c4cnc(NC(C)=O)cc34)n2)CCOC1 |  |  | > 20 | 6.1 | 190 (≈ 86.4 µg/mL) | 21 | 1.8 | 3 | EC50 [6]: > 20 µM; EC50 [7]: > 20 µM; CL free [11]: 6.1 L/h/kg; half-life [12]: 30 min; Vd [13]: 2.5 L/kg; bioavailability [14]: 16%; CL free [15]: 1.8 L/h/kg; CL free [16]: 6.4 L/h/kg; CL free [17]: 2.5 L/h/kg; half-life [18]: 180 min; AUC(0-inf) [19]: 300 ng·h/mL; bioavailability [20]: 71%; CL free [21]: 4.7 L/h/kg; half-life [22]: 84 min
6 | CC(=O)Nc1cc2c(-c3cccc(S(=O)(=O)N(C)C)c3)cn(C)c2cn1 | 10 | 20 | 6.8 | 8.4 | 3.2 (≈ 1.19 µg/mL) |  |  |  | 
7 | CO[C@]1(c2cccc(-c3cn(C)c4cnc(NC(C)=O)cc34)n2)CCOC1 | 60 | 1500 |  | 4.8 | 29 (≈ 10.6 µg/mL) |  |  |  | 
8 | COCCOc1cc(-c2cn(C)c3cnc(NC(C)=O)cc23)nc([C@]2(OC)CCOC2)c1 |  | 30 |  | 6.6 |  | 6 | 4 | 42 | 
9 | CO[C@@]1(c2cc(C#N)cc(-c3cn([C@@H]4CC4(F)F)c4cnc(NC(C)=O)cc34)n2)CCOC1 |  |  |  | 4.1 |  | 20 | 13 | 40 | 
10 | CO[C@@]1(c2cccc(-c3cn(C)c4cnc(NC(N)=O)cc34)n2)CCOC1 | 5 | 60 |  | 2.5 | 16 (≈ 5.88 µg/mL) |  |  |  | 
11 | CC(=O)Nc1cc2c(-c3cccc(S(=O)(=O)C4COC4)n3)cn(C)c2cn1 | 35 | 194 | 14 |  |  |  |  |  | 
12 | CO[C@@]1(c2cc(OCC#N)cc(-c3cn(C)c4cnc(NC(C)=O)cc34)n2)CCOC1 |  |  |  | 2 |  |  |  |  | 
13 | CO[C@@]1(c2cccc(-c3cn(C)c4cnc(NC(C)=O)cc34)n2)CCOC1 | 30 |  |  | 4.8 | 20 (≈ 7.33 µg/mL) |  |  |  | 
14 | CO[C@@]1(c2cc(OC(F)F)cc(-c3cn(C)c4cnc(NC(C)=O)cc34)n2)CCOC1 |  |  |  | 6.1 |  | 53 | 6 | 64 | 
15 | COc1cc(-c2cn(C3COC3)c3cnc(NC(C)=O)cc23)nc([C@]2(OC)CCOC2)c1 |  |  |  | 0.75 |  | 43 | 13 | 49 | 
16 | CO[C@@]1(c2cc(C(F)F)cc(-c3cn(C)c4cnc(NC(C)=O)cc34)n2)CCOC1 |  | 40 |  | 1.9 |  | 49 | 7.7 | 23 | 
17 | CC(=O)Nc1cc2c(-c3cccc(S(=O)(=O)N(C)C)c3)c[nH]c2cn1 | 30 | 120 | 19.7 | 6.8 | 1.2 (≈ 0.43 µg/mL) |  |  |  | IC50 [23]: 6 µM; IC50 [24]: 40 µM; Ratio IC50 [25]: > 200; Ratio IC50 [26]: > 200; EC50 [6]: > 19 µM; EC50 [7]: > 19 µM
